Results published in US20260184707A1, “PHARMACEUTICAL COMPOUNDS FOR THE TREATMENT OF COMPLEMENT MEDIATED DISORDERS” (ALEXION PHARMACEUTICALS, INC., priority 2022, published 2026).

Target: T1, Human complement C1s enzyme (Homo sapiens, UniProt P09871)
T1 construct: purified from human serum, Complement Technology, Inc; purchased Complement Technology, Inc; host or cells: human serum (plasma-derived native protein)
T1 sequence (P09871 438-688 limits assumed): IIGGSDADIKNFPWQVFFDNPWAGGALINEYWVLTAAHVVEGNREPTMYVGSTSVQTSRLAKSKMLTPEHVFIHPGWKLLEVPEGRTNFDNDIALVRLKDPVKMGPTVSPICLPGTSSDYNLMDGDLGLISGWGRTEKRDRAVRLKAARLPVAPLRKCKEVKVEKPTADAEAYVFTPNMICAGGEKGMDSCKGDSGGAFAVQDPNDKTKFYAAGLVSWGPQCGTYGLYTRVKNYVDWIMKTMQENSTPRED
T1 sequence (P09871 16-437 partner limits assumed): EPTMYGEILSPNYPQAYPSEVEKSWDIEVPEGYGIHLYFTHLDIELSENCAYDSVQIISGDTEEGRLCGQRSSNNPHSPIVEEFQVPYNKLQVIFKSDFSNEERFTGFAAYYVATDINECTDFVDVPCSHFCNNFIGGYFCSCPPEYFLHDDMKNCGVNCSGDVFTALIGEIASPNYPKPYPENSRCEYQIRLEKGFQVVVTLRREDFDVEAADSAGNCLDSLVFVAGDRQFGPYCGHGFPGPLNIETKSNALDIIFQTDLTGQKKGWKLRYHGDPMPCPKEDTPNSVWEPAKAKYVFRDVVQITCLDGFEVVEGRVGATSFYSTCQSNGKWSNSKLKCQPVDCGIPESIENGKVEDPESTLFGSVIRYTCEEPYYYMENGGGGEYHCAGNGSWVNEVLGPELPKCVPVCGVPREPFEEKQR
Experiment: Human C1s enzyme assay
Format: biochemical
Conditions: human complement C1s enzyme 1.16 nM, substrate Z-L-Lys-SBzl, A405; read-out: IC50 (Stars)
Summary of the method: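 Serum-purified human C1s (1.16 nM final) preincubated 5 min at room temperature with compound in 50 mM Tris, 1 M NaCl, pH 7.5. Z-L-Lys-SBzl and DTNB added at 100 μM each; A405 recorded every 30 s. IC50 from nonlinear regression of reaction rates versus compound concentration.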

SMILES | IC50
O=C(Cc1cc(NCCCc2ccccc2)cnc1-c1ccccc1)NCc1cc2cnccc2[nH]1 [Compound 207, N-((1H-pyrrolo[3,2-c]pyridine-2-yl)methyl)-2-(2-phenyl-5-((3-phenylpropyl)amino)146yridine-3-yl)acetamide] | > 1000 nM
C[C@@H](Nc1cnc(N2C3CCC2COC3)n(CC(=O)NCc2cc3cnccc3[nH]2)c1=O)c1ccc2oc3ccccc3c2c1 [Compound 306, N-((1H-pyrrolo[3,2-c]pyridin-2-yl)methyl)-2-(2-(3-oxa-8-azabicyclo[3.2.1]octan-8-yl)-5-(((R)-1-(dibenzo[b,d]furan-2-yl)ethyl)amino)-6-oxopyrimi-din-1(6H)-yl)acetamide] | 100 to 1000 nM
C[C@@H](Nc1c[nH]c(=O)n(CC(=O)NCc2cc3cnccc3[nH]2)c1=O)c1ccc2oc3ccccc3c2c1 [Compound 338, (R)-N-((1H-pyrrolo[3,2-c]pyridin-2-yl)methyl)-2-(5-((1-(dibenzo[b,d]furan-2-yl)ethyl)-amino)-2,6-dioxo-3,6-dihydro-pyrimidin-1(2H)-yl)acetamide] | 100 to 1000 nM
C[C@@H](Nc1ncc(N2CCN(C)CC2)n(CC(=O)NCc2cc3cnccc3[nH]2)c1=O)c1ccc2oc3ccccc3c2c1 [Compound 428, (R)-N-((1H-pyrrolo[3,2-c]pyridin-2-yl)methyl)-2-(3-((1-(dibenzo[b,d]furan-2-yl)ethyl)-amino)-6-(4-methylpiperazin-1-yl)-2-oxopyrazin-1(2H)-yl)-acetamide] | < 100 nM
C[C@@H](Nc1cnc(N2CCCCC2)n(CC(=O)NCc2cc3cnccc3[nH]2)c1=O)c1ccc(-c2ccccc2)s1 [Compound 445, (R)—N-((1H-Pyrrolo[3,2-c]pyridine-2-yl)methyl)-2-(6-oxo-5-((1-(5-phenylthiophen-2-yl)ethyl)amino)-2-(piperidin-1-yl)pyrimidin-1(6H)-yl)acetamide] | < 100 nM
COCC(=O)N1CCN(c2ncc(N[C@H](C)c3ccc4oc5ccccc5c4c3)c(=O)n2CC(=O)NCc2cc3cnccc3[nH]2)CC1 [Compound 482, (R)-N-((1H-pyrrolo[3,2-c]pyridin-2-yl)methyl)-2-(5-((1-(dibenzo[b,d]furan-2-yl)ethyl)-amino)-2-(4-(2-methoxyacet-yl)piperazin-1-yl)-6-oxopyr-imidin-1(6H)-yl)acetamide] | < 100 nM
O=C(Cn1c(-c2cccc(F)c2)ncc(NCc2ccc3oc4ccccc4c3c2)c1=O)NCc1cc2cnccc2[nH]1 [Compound 117, N-((1H-pyrrolo[3,2-c]pyridin-2-yl)methyl)-2-(5-((dibenzo [b,d]furan-2-ylmethyl)amino)-2-(3-fluorophenyl)-6-oxopyr-imidin-1(6H)-yl)acetamide] | < 100 nM

Continued, values first:

IC50 | SMILES
< 100 nM | O=C(Cn1cncc(NCc2nnc(-c3ccccc3)s2)c1=O)NCc1cc2cnccc2[nH]1 [Compound 485, N-((1H-pyrrolo[3,2-c]pyridin-2-yl)methyl)-2-(6-oxo-5-(((5-phenyl-1,3,4-thiadiazol-2-yl)-methyl)amino)pyrimidin-1(6H)-yl)acetamide]
< 100 nM | O=C(Cn1c(-c2ccccc2)ncc(NC(=O)c2ccc(-c3ccc(F)cc3)cc2)c1=O)NCc1cc2cnccc2[nH]1 [Compound 99, N-(1-(2-(((1H-pyrrolo[3,2-c]pyridin-2-yl)methyl)amino)-2-oxoethyl)-6-oxo-2-phenyl-1,6-dihydropyrimidin-5-yl)-4′-fluoro-[1,1′-biphenyl]-4-carboxamide]
< 100 nM | O=C(Cn1c(-c2ccccc2)ncc(Nc2cccc(-c3ccc(F)cc3)c2)c1=O)NCc1cc2cnccc2[nH]1 [Compound 236, N-((1H-pyrrolo[3,2-c]pyridin-2-yl)methyl)-2-(5-((4′-fluoro-[1,1′-biphenyl]-3-yl)amino)-6-oxo-2-phenylpyrimidin-1(6H)-yl)acetamide]
< 100 nM | O=C(Cn1c(-c2ccccc2)ncc(NCc2ccc3oc4ccccc4c3c2)c1=O)NCc1cc2cnccc2[nH]1 [Compound 32, N-((1H-pyrrolo[3,2-c]pyridin-2-yl)methyl)-2-(5-((dibenzo [b,d]furan-2-ylmethyl)amino)-6-oxo-2-phenylpyrimidin-1(6H)-yl)acetamide]
